Experimental data taken from PubChem BioAssay (NCI).
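Each compound was tested at five concentrations against cells in 96-well plates for 48 hours. The concentration for full growth arrest is given as TGI.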

Assays:
Experiment in all cases: growth of human tumour cells (NCI), 48 h
[1] = system: MOLT-4 leukemia
[2] = system: MDA-MB-435
[3] = system: SK-MEL-28 melanoma
[4] = system: A549 NSCLC
[5] = system: SK-MEL-2 melanoma
[6] = system: MALME-3M melanoma
[7] = system: SK-OV-3 ovarian
[8] = system: OVCAR-4 ovarian
[9] = system: HS 578T breast
[10] = system: OVCAR-8 ovarian
[11] = system: TK-10 renal
[12] = system: HL-60(TB) leukemia
[13] = system: HCC-2998 colon
[14] = system: NCI/ADR-RES ovarian
[15] = system: SF-539 CNS
[16] = system: IGROV1 ovarian
[17] = system: SN12C renal
[18] = system: SW-620 colon
[19] = system: HOP-92 NSCLC
[20] = system: EKVX NSCLC
[21] = system: MDA-N
[22] = system: ACHN renal
[23] = system: HT29 colon
[24] = system: NCI-H226 lung
[25] = system: NCI-H460 lung
[26] = system: UACC-257 melanoma
[27] = system: HCT-15 colon
[28] = system: SK-MEL-5 melanoma
[29] = system: OVCAR-5 ovarian
[30] = system: MCF7 breast
[31] = system: SF-295 CNS
[32] = system: DU-145 prostate
[33] = system: NCI-H23 lung
[34] = system: COLO 205 colon
[35] = system: HCT-116 colon
[36] = system: T-47D breast
[37] = system: K-562 leukemia
[38] = system: UO-31 renal
[39] = system: SNB-19 CNS
[40] = system: BT-549 breast
[41] = system: NCI-H522 lung
[42] = system: RPMI-8226 leukemia
[43] = system: MDA-MB-231 breast
[44] = system: U251 CNS
[45] = system: PC-3 prostate
[46] = system: SF-268 CNS
[47] = system: A498 renal
[48] = system: HOP-62 NSCLC
[49] = system: UACC-62 melanoma
[50] = system: 786-0 renal
[51] = system: SNB-75 CNS
[52] = system: CCRF-CEM leukemia
[53] = system: M14 melanoma
[54] = system: KM12 colon
[55] = system: RXF 393 renal
[56] = system: SR leukemia
[57] = system: OVCAR-3 ovarian
[58] = system: LOX IMVI melanoma
[59] = system: CAKI-1 renal

Question: Which results are given for `O=S(=O)(Cc1nc2ccccc2s1)c1nc2ccccc2s1`?
Answer: TGI [1]: 39.9 µM; TGI [2]: 34.4 µM; TGI [3]: 30.5 µM; TGI [4]: 95 µM; TGI [5]: 37.7 µM; TGI [6]: 24.9 µM; TGI [7]: > 100 µM; TGI [8]: 31.4 µM; TGI [9]: 79.3 µM; TGI [10]: 55.7 µM; TGI [11]: 35.7 µM; TGI [12]: 24.2 µM; TGI [13]: 30.2 µM; TGI [14]: > 100 µM; TGI [15]: 43.7 µM; TGI [16]: 39.6 µM; TGI [17]: 35.2 µM; TGI [18]: 34.6 µM; TGI [19]: 28.1 µM; TGI [20]: 46.2 µM; TGI [21]: 39.5 µM; TGI [22]: 33 µM; TGI [23]: 37.5 µM; TGI [24]: 65.6 µM; TGI [25]: > 100 µM; TGI [26]: 41.8 µM; TGI [27]: 32 µM; TGI [28]: 25.6 µM; TGI [29]: 39.4 µM; TGI [30]: 37.1 µM; TGI [31]: 64.2 µM; TGI [32]: 32 µM; TGI [33]: 38.9 µM; TGI [34]: 33.4 µM; TGI [35]: 27 µM; TGI [36]: 53.6 µM; TGI [37]: 32.2 µM; TGI [38]: 31.4 µM; TGI [39]: 44 µM; TGI [40]: 34.1 µM; TGI [41]: 33.9 µM; TGI [42]: 37 µM; TGI [43]: 34 µM; TGI [44]: 34.9 µM; TGI [45]: 32.6 µM; TGI [46]: 42.2 µM; TGI [47]: 38.6 µM; TGI [48]: > 100 µM; TGI [49]: 44.2 µM; TGI [50]: 34.1 µM; TGI [51]: 41.3 µM; TGI [52]: 23.7 µM; TGI [53]: 30.5 µM; TGI [54]: 35.4 µM; TGI [55]: 59.6 µM; TGI [56]: 21 µM; TGI [57]: 28.1 µM; TGI [58]: 25.6 µM

Question: For `O=C(Cc1nc2cccnc2nc1/C=C(\O)c1ccccc1)c1ccccc1`, which TGI [1] is on record?
Answer: > 100 µM

Question: What about the TGI [2] of the same compound?
Answer: 82 µM

Question: What about the TGI [3] of the same compound?
Answer: > 100 µM

Question: And the TGI [4]?
Answer: > 100 µM

Question: What about the TGI [5] of the same compound?
Answer: 65.4 µM

Question: And the TGI [6]?
Answer: > 100 µM

Question: And the TGI [7]?
Answer: > 100 µM

Question: And the TGI [8]?
Answer: > 100 µM

Question: What about the TGI [9] of the same compound?
Answer: > 100 µM

Question: And the TGI [10]?
Answer: > 100 µM

Question: What about the TGI [11] of the same compound?
Answer: > 100 µM

Question: What about the TGI [12] of the same compound?
Answer: 66.6 µM

Question: What about the TGI [14] of the same compound?
Answer: > 100 µM

Question: What about the TGI [15] of the same compound?
Answer: > 100 µM

Question: And the TGI [16]?
Answer: > 100 µM

Question: What about the TGI [17] of the same compound?
Answer: 59.1 µM

Question: What about the TGI [18] of the same compound?
Answer: > 100 µM

Question: And the TGI [19]?
Answer: 59 µM

Question: And the TGI [21]?
Answer: > 100 µM

Question: And the TGI [22]?
Answer: > 100 µM

Question: And the TGI [23]?
Answer: > 100 µM

Question: And the TGI [25]?
Answer: 22.7 µM

Question: What about the TGI [26] of the same compound?
Answer: > 100 µM

Question: What about the TGI [27] of the same compound?
Answer: > 100 µM

Question: And the TGI [28]?
Answer: 38 µM

Question: What about the TGI [29] of the same compound?
Answer: > 100 µM

Question: What about the TGI [30] of the same compound?
Answer: 27.6 µM

Question: What about the TGI [31] of the same compound?
Answer: 82.1 µM

Question: What about the TGI [32] of the same compound?
Answer: > 100 µM

Question: What about the TGI [33] of the same compound?
Answer: > 100 µM

Question: What about the TGI [34] of the same compound?
Answer: 25.1 µM

Question: What about the TGI [36] of the same compound?
Answer: > 100 µM

Question: And the TGI [37]?
Answer: > 100 µM

Question: And the TGI [38]?
Answer: 79.6 µM

Question: What about the TGI [39] of the same compound?
Answer: > 100 µM

Question: And the TGI [40]?
Answer: 38.4 µM

Question: What about the TGI [41] of the same compound?
Answer: 35.6 µM

Question: What about the TGI [42] of the same compound?
Answer: 29 µM

Question: And the TGI [43]?
Answer: > 100 µM

Question: And the TGI [44]?
Answer: > 100 µM

Question: And the TGI [45]?
Answer: > 100 µM

Question: And the TGI [46]?
Answer: 46 µM

Question: What about the TGI [47] of the same compound?
Answer: 74 µM

Question: What about the TGI [48] of the same compound?
Answer: 58.4 µM

Question: What about the TGI [49] of the same compound?
Answer: 18.6 µM

Question: And the TGI [51]?
Answer: 96.4 µM

Question: What about the TGI [59] of the same compound?
Answer: 30.5 µM

Question: What about the TGI [52] of the same compound?
Answer: 29.9 µM

Question: And the TGI [53]?
Answer: > 100 µM

Question: And the TGI [54]?
Answer: > 100 µM

Question: What about the TGI [56] of the same compound?
Answer: > 100 µM

Question: And the TGI [57]?
Answer: 13.3 µM

Question: And the TGI [58]?
Answer: 87 µM
